Assay results: BigSolDB 2.1

O=C(O)c1ccccc1O
solubility (mole fraction)
Conditions | 298.2 K | 308.2 K | 318.2 K | 328.2 K | 338.2 K
in acetone | 0.137 | 0.139 | 0.156 | 0.196 | –
in isopropanol | 0.144 | 0.161 | 0.173 | 0.195 | 0.214
in n-propanol | 0.132 | 0.15 | 0.163 | 0.179 | 0.195
in water | 0.000295 | 0.000355 | 0.000507 | 0.000699 | 0.000944
